This is an account of results in ChEMBL document CHEMBL1139745, “Synthesis and biological study of 4-aminopyrimidine-5-carboxaldehyde oximes as antiproliferative VEGFR-2 inhibitors” (Bioorg Med Chem Lett, 2006).

SMILES strings stand for the structures.

Sequence of Vascular endothelial growth factor receptor 2 (P35968 whole entry): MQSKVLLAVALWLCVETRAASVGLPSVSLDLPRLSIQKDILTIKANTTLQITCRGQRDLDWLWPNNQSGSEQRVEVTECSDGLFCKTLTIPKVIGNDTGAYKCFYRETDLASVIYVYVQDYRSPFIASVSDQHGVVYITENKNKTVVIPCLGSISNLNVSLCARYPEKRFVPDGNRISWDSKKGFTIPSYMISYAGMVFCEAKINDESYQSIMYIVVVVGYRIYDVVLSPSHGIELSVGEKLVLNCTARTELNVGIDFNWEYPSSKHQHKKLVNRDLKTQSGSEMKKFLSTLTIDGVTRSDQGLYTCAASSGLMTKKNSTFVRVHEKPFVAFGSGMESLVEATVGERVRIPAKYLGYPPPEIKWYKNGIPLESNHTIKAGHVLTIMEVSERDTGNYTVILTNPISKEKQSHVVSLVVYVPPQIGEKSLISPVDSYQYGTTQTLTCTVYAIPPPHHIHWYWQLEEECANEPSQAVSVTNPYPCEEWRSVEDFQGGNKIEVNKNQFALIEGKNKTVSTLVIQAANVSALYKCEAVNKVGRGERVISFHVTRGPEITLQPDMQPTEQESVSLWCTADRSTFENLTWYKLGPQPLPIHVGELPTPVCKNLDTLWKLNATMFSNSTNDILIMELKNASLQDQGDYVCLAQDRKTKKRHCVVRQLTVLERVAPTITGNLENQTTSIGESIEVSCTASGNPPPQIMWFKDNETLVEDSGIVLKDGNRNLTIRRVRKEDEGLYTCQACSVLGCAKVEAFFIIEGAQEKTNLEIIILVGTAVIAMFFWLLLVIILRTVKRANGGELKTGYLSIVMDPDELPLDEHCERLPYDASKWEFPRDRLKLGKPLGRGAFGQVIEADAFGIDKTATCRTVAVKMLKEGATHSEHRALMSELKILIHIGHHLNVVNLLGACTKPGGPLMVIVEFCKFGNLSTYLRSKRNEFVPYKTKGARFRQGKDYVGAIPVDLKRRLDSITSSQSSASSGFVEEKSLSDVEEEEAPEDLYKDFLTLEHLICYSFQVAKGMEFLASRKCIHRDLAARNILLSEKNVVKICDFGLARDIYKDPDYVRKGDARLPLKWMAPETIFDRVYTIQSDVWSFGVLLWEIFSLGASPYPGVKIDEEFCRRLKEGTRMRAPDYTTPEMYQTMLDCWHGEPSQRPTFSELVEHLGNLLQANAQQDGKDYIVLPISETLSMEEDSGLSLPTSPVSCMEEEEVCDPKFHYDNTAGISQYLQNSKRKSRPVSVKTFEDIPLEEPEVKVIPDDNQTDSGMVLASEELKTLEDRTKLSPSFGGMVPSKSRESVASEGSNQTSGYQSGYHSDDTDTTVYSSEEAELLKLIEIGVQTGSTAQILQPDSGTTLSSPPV

The first assay concerns the target Vascular endothelial growth factor receptor 2 (Homo sapiens, UniProt P35968). The assay is described as follows: Inhibition of VEGFR2.
Settings: not given
Usually IC50 stands for the concentration at which inhibition is half-maximal. Low values mean greater potency, high ones weaker potency. As for `Cc1cc2c(F)c(Oc3ncnc(N)c3/C=N/O)ccc2[nH]1`, 0.033 µM corresponded to half-maximal inhibition (IC50).

In the next assay the test system is HeLa. Nature of the assay: Antiproliferative activity against HeLa cells. Format: functional, cell-based. The settings on record: Homo sapiens.
Turning to `Cc1cc2c(F)c(Oc3ncnc(N)c3/C=N/OCC3CCCCC3)ccc2[nH]1`, half-maximal inhibition (IC50) was put at 22.7 µM.

As for `CO/N=C/c1c(N)ncnc1Oc1ccc2c(ccn2C)c1`, the IC50 was determined as 0.375 µM.

As for `CO/N=C/c1c(N)ncnc1Oc1ccc2cccnc2c1`, the IC50 is 1.82 µM.

`COCCO/N=C/c1c(N)ncnc1Oc1ccc2[nH]c(C)cc2c1F`: the IC50 was determined as 0.308 µM.

`CO/N=C/c1c(N)ncnc1Oc1ccc2ncccc2c1`: half-maximal inhibition (IC50) required 3.43 µM.

Turning to `Cc1cc2c(F)c(Oc3ncnc(N)c3/C=N/OCCO)ccc2[nH]1`, inhibition was half-maximal at 0.406 µM (IC50).

For `COCCCO/N=C/c1c(N)ncnc1Oc1ccc2[nH]c(C)cc2c1F`, half-maximal inhibition (IC50) was put at 0.346 µM.

On to `Cc1cc2c(F)c(Oc3ncnc(N)c3/C=N/O)ccc2[nH]1`, for which half-maximal inhibition (IC50) required 0.472 µM.

Compound `C=CCO/N=C/c1c(N)ncnc1Oc1ccc2[nH]c(C)cc2c1F` yielded an IC50 of 0.042 µM.

`Cc1cc2c(F)c(Oc3ncnc(N)c3/C=N/OCCCO)ccc2[nH]1` displayed a concentration for half-maximal inhibition (IC50) of 0.362 µM.

`Cc1cc2c(F)c(Oc3ncnc(N)c3/C=N/OCCN3CCCC3)ccc2[nH]1` yielded an IC50 of 4.22 µM.

Take `CO/N=C/c1c(N)ncnc1Oc1ccc2[nH]c(C)cc2c1`: the IC50 worked out at 0.388 µM.

`CO/N=C/c1c(N)ncnc1Oc1ccc2[nH]cc(C)c2c1` returned an IC50 of 0.306 µM.

`CNCCO/N=C/c1c(N)ncnc1Oc1ccc2[nH]c(C)cc2c1F` returned an IC50 of 2.01 µM.

Turning to `CO/N=C/c1c(N)ncnc1Oc1cc2cc[nH]c2cc1F`, half-maximal inhibition (IC50) required 0.382 µM.

As for `CCO/N=C/c1c(N)ncnc1Oc1ccc2[nH]c(C)cc2c1F`, the IC50 came to 0.032 µM.

In turn, `CCCCO/N=C/c1c(N)ncnc1Oc1ccc2[nH]c(C)cc2c1F` registered an IC50 of 0.607 µM.

For `CO/N=C/c1c(N)ncnc1Oc1ccc2[nH]ccc2c1F`, half-maximal inhibition (IC50) required 0.401 µM.

Take `CO/N=C/c1c(N)ncnc1Oc1ccc2[nH]ccc2c1`: the IC50 stood at 1.87 µM.

`CCCO/N=C/c1c(N)ncnc1Oc1ccc2[nH]c(C)cc2c1F` registered an IC50 of 0.04 µM.

The compound `Cc1cc2c(F)c(Oc3ncnc(N)c3/C=N/OCc3ccccc3)ccc2[nH]1` showed an IC50 of 0.266 µM.

The subject of the next assay is HCT-116. The assay is described as follows: Antiproliferative activity against HCT116 cells. It is filed as functional, cell-based. The note with it: Homo sapiens.
The compound `Cc1cc2c(F)c(Oc3ncnc(N)c3/C=N/OCC3CCCCC3)ccc2[nH]1` yielded an IC50 of 16.1 µM.

As to `CO/N=C/c1c(N)ncnc1Oc1ccc2c(ccn2C)c1`, the IC50 amounted to 0.749 µM.

`CO/N=C/c1c(N)ncnc1Oc1ccc2cccnc2c1` displayed an IC50 of 2.62 µM.

The compound `COCCO/N=C/c1c(N)ncnc1Oc1ccc2[nH]c(C)cc2c1F` had an IC50 of 0.387 µM.

Regarding `CO/N=C/c1c(N)ncnc1Oc1ccc2ncccc2c1`, the IC50 came out at 2.87 µM.

As to `Cc1cc2c(F)c(Oc3ncnc(N)c3/C=N/OCCO)ccc2[nH]1`, the IC50 amounted to 0.323 µM.

In the case of `COCCCO/N=C/c1c(N)ncnc1Oc1ccc2[nH]c(C)cc2c1F`, 0.438 µM corresponded to half-maximal inhibition (IC50).

As for `Cc1cc2c(F)c(Oc3ncnc(N)c3/C=N/O)ccc2[nH]1`, the IC50 turned out to be 1.14 µM.

As to `C=CCO/N=C/c1c(N)ncnc1Oc1ccc2[nH]c(C)cc2c1F`, the IC50 amounted to 0.04 µM.

Take `Cc1cc2c(F)c(Oc3ncnc(N)c3/C=N/OCCCO)ccc2[nH]1`: the IC50 came out at 0.452 µM.

With `Cc1cc2c(F)c(Oc3ncnc(N)c3/C=N/OCCN3CCCC3)ccc2[nH]1`, the IC50 came to 4.61 µM.

The compound `CO/N=C/c1c(N)ncnc1Oc1ccc2[nH]c(C)cc2c1` showed an IC50 of 0.386 µM.

Consider `CO/N=C/c1c(N)ncnc1Oc1ccc2[nH]cc(C)c2c1`, for which the IC50 came to 0.385 µM.

In turn, `CNCCO/N=C/c1c(N)ncnc1Oc1ccc2[nH]c(C)cc2c1F` gave an IC50 of 3.01 µM.

`CO/N=C/c1c(N)ncnc1Oc1cc2cc[nH]c2cc1F` displayed a half-maximal inhibitory concentration (IC50) of 0.422 µM.

Regarding `CCO/N=C/c1c(N)ncnc1Oc1ccc2[nH]c(C)cc2c1F`, inhibition was half-maximal at 0.036 µM (IC50).

For the compound `CCCCO/N=C/c1c(N)ncnc1Oc1ccc2[nH]c(C)cc2c1F`, the IC50 amounted to 1 µM.

For the compound `CO/N=C/c1c(N)ncnc1Oc1ccc2[nH]ccc2c1F`, the IC50 worked out at 0.365 µM.

Take `CO/N=C/c1c(N)ncnc1Oc1ccc2[nH]ccc2c1`: the 50% inhibitory concentration (IC50) is 3.52 µM.

The compound `CCCO/N=C/c1c(N)ncnc1Oc1ccc2[nH]c(C)cc2c1F` gave a 50% inhibitory concentration (IC50) of 0.03 µM.

Take `Cc1cc2c(F)c(Oc3ncnc(N)c3/C=N/OCc3ccccc3)ccc2[nH]1`: half-maximal inhibition (IC50) was put at 0.311 µM.

The next assay relates to A-375. Nature of the assay: Antiproliferative activity against A375 cells. It is filed as functional, cell-based. The note with it: Homo sapiens.
`Cc1cc2c(F)c(Oc3ncnc(N)c3/C=N/OCC3CCCCC3)ccc2[nH]1` showed an IC50 of 4.92 µM.

`CO/N=C/c1c(N)ncnc1Oc1ccc2c(ccn2C)c1` displayed an IC50 of 0.326 µM.

`CO/N=C/c1c(N)ncnc1Oc1ccc2cccnc2c1` registered an IC50 of 0.886 µM.

In turn, `COCCO/N=C/c1c(N)ncnc1Oc1ccc2[nH]c(C)cc2c1F` showed an IC50 of 0.233 µM.

`CO/N=C/c1c(N)ncnc1Oc1ccc2ncccc2c1` gave an IC50 of 1.82 µM.

Consider `Cc1cc2c(F)c(Oc3ncnc(N)c3/C=N/OCCO)ccc2[nH]1`, for which 0.372 µM corresponded to half-maximal inhibition (IC50).

For `COCCCO/N=C/c1c(N)ncnc1Oc1ccc2[nH]c(C)cc2c1F`, the 50% inhibitory concentration (IC50) stood at 0.3 µM.

Turning to `Cc1cc2c(F)c(Oc3ncnc(N)c3/C=N/O)ccc2[nH]1`, the midpoint of inhibition, the IC50, lay at 0.492 µM.

`C=CCO/N=C/c1c(N)ncnc1Oc1ccc2[nH]c(C)cc2c1F`: the IC50 stood at 0.021 µM.

In the case of `Cc1cc2c(F)c(Oc3ncnc(N)c3/C=N/OCCCO)ccc2[nH]1`, inhibition was half-maximal at 0.336 µM (IC50).

`Cc1cc2c(F)c(Oc3ncnc(N)c3/C=N/OCCN3CCCC3)ccc2[nH]1`: half-maximal inhibition (IC50) was put at 2.16 µM.

As for `CO/N=C/c1c(N)ncnc1Oc1ccc2[nH]c(C)cc2c1`, the IC50 came to 0.356 µM.

On to `CO/N=C/c1c(N)ncnc1Oc1ccc2[nH]cc(C)c2c1`, for which half-maximal inhibition (IC50) was put at 0.132 µM.

`CNCCO/N=C/c1c(N)ncnc1Oc1ccc2[nH]c(C)cc2c1F`: the IC50 worked out at 0.345 µM.

Consider `CO/N=C/c1c(N)ncnc1Oc1cc2cc[nH]c2cc1F`, for which 0.327 µM corresponded to half-maximal inhibition (IC50).

As to `CCO/N=C/c1c(N)ncnc1Oc1ccc2[nH]c(C)cc2c1F`, the half-maximal inhibitory concentration (IC50) turned out to be 0.027 µM.

As for `CCCCO/N=C/c1c(N)ncnc1Oc1ccc2[nH]c(C)cc2c1F`, the IC50 is 0.446 µM.

In the case of `CO/N=C/c1c(N)ncnc1Oc1ccc2[nH]ccc2c1F`, it took 0.492 µM to reach half-maximal inhibition (IC50).

`CO/N=C/c1c(N)ncnc1Oc1ccc2[nH]ccc2c1` yielded a half-inhibitory concentration (IC50) of 0.783 µM.

Compound `CCCO/N=C/c1c(N)ncnc1Oc1ccc2[nH]c(C)cc2c1F` registered an IC50 of 0.028 µM.

With `Cc1cc2c(F)c(Oc3ncnc(N)c3/C=N/OCc3ccccc3)ccc2[nH]1`, the midpoint of inhibition, the IC50, lay at 0.062 µM.

Another assay has as its system HeLa. Nature of the assay: Cell cycle arrest by accumulation at G2 phase in human HeLa cells at 62.5 nM. It is filed as functional.
Settings: not given
As to `C=CCO/N=C/c1c(N)ncnc1Oc1ccc2[nH]c(C)cc2c1F`, the Activity is given as 99.76%.

For a further assay, the system named is HeLa. The assay is described as follows: Cell cycle arrest in human HeLa cells by accumulation at G1 phase at 62.5 nM. It is filed as functional.
Settings: not given
On to `C=CCO/N=C/c1c(N)ncnc1Oc1ccc2[nH]c(C)cc2c1F`, for which the Activity was found to be 0.24%.

The test system of the next assay is HeLa. The assay is described as follows: Cell cycle arrest in human HeLa cells by accumulation at S phase at 62.5 nM. It is filed as functional.
Settings: not given
Regarding `C=CCO/N=C/c1c(N)ncnc1Oc1ccc2[nH]c(C)cc2c1F`, the Activity turned out to be 0%.
